Measurements taken from patent US12692253B2, “Antimicrobial compounds and methods” (Curza Global, LLC, priority 2019, dated 2026).

Columns and labels:
E. coli (Ec) = experiment: Broth microdilution minimum inhibitory concentration (MIC), CLSI; format: cell-based; conditions: growth medium supplemented with sodium bicarbonate; for MIC: Escherichia coli, read-out: E. coli + bicarb MIC
Experimental: (§1) A certified BSL-2 laboratory was used for testing. Compounds were evaluated using the broth microdilution minimum inhibitory concentration (MIC) and minimum bactericidal concentration (MBC) assays defined by Clinical and Laboratory Standards Institute (CLSI) in the M26-A guideline against S. aureus (Sa), E. coli (Ec), K. pneumoniae (Kp), A. baumannn (Ab), E. faecalis (Ef) and P. aeruginosa (Pa).
(§2) MICs were determined using the Clinical Laboratory and Standards Institute (CLSI) Broth Microdilution Method with slight modification. Clinical and Laboratory Standards Institute (2012). “Methods for dilution antimicrobial susceptibility tests for bacteria that grow aerobically; approved standard, 9th ed. M07-A9 Clinical and Laboratory Standards Institute, Wayne, PA” Serial two-fold dilutions of compounds are prepared in sterile clear round-bottom 96-well plates.
(§3) To prepare microdilution trays, two-fold dilutions of antimicrobial agent are prepared in growth medium: Cation-Adjusted Mueller-Hinton Broth (CAMHB), or CAMHB supplemented with sodium bicarbonate (6.25 or 25 mM final concentration prepared from a 1.0M stock solution) or CAMHB supplemented with heat inactivated human serum (Fisher Cat. #BP2657100) 0-50% by adding 200 µL of the highest concentration to be tested (64 μg/mL, for example) in row A, mixing and transferring 100 μL from row A to 100 μL growth medium in row B, then repeating the mixing and transferring through row H of the 96-well plate, discarding the excess […] remaining. This slight modification to the CLSI protocol enables evaluation of MICs for 3 compounds per plate in triplicate, albeit with only 8 compound dilutions (CLSI protocol enables 2 compounds in triplicate with 10 dilutions). Bacterial suspensions are added to a final concentration of 5×10^4 CFU/well by adding 5 μL of a 1:10 dilution of a 0.5 McFarland suspension (1×10^8 CFU/mL) for each bacterium evaluated. Bacterial suspensions were prepared using the growth method described by CLSI. Well-isolated colonies (3-5 from an agar plate) were selected using a sterile loop and used to inoculate a tube containing 4 mL of CAMHB. The cultures are incubated at 35±2° C. until it achieves or exceeds the turbidity of the 0.5 McFarland standard, determined by measuring A600 (usually two to six hours). When growth exceeds a 0.5 McFarland standard, the turbidity is adjusted with broth to be equivalent to a 0.5 McFarland standard.

[1] = target: Rabbit Reticulocyte Lysate (eukaryotic protein synthesis); experiment: Rabbit reticulocyte lysate luciferase assay (inhibition of eukaryotic protein synthesis); format: biochemical; conditions: class by IC50 or % inhibition @ 1 μM, read-out: Rabbit reticulocyte IC50 (μM/% inhib.)
Experimental: Inhibition of eukaryotic protein synthesis was determined using the Rabbit Reticulocyte Lysate System, Nuclease-Treated from Promega (catalog #L-4960) with slight modifications to the manufacturer's protocol. Compounds were serial diluted in 0.5 mL microcentrifuge tubes by mixing and transferring 50 μL from the highest concentration to 50 μL of water, mixing and transferring 50 μL of this 2-fold dilution to 50 μL of water. This mixing and transferring was repeated so that there are a total of 8 tubes with serial dilutions of compound at 10× the desired screening concentration that are ultimately diluted to 1× by the addition of rabbit reticulocyte luciferase synthesis mixture. Serial dilutions of compounds were added (2.5 μL) to wells in a black round bottom 96-well plate. Water (2.5 μL) was used as a “no inhibitor” control in 4 wells/plate. No RNA control reaction mixture (2 μL; see below) was used as a control in 4 wells/plate for background luminescence. Rabbit reticulocyte luciferase synthesis mixture (22.5 μL; see below) was added to wells with compounds or water mixture and incubated at 30° C. for 90 minutes. Luciferase assay reagent (25 μL) was added with luminescence measured using a BioTek Synergy HTX plate reader. % Inhibition was determined relative to no inhibitor controls.
Rabbit Reticulocyte Luciferase Synthesis Mixture:
• 1,000 μL rabbit reticulocyte lysate • 5.7 μL Luciferase Control RNA (1 μg/μL) • 26 μL complete amino acid mixture • 395 μL water • No RNA Control • 70 μL rabbit reticulocyte lysate • 2 μL complete amino acid mixture • 28 μL water Minimum Inhibitory Concentration (MIC)

[2] = system: E. coli S30 extract (bacterial protein synthesis); experiment: E. coli S30 extract coupled transcription-translation luciferase assay (inhibition of bacterial protein synthesis); format: biochemical; conditions: class by IC50 or % inhibition @ 1 μM, read-out: S30 IC50 (μM/% inhib.)
Experimental: E. coli S30 extract: Inhibition of bacterial protein synthesis was determined using the E. coli S30 Extract System for Circular DNA (Promega catalog #L-2010) and Luciferase Assay Reagent (Promega catalog #E1500) with slight modifications to a published protocol. Fyfe, C., Sutcliffe, J. A. and Grossman, T. H. (2012) “Development and characterization of a Pseudomonas aeruginosa in vitro coupled transcription-translation assay system for evaluation of translation inhibitors” J. Microbiol. Methods 90(3), 256-261.
Compounds were serial diluted in 0.5 mL microcentrifuge tubes by mixing and transferring 50 μL from the highest concentration to 50 μL of water, mixing and transferring 50 μL of this 2-fold dilution to 50 μL of water. This mixing and transferring was repeated so that there are a total of 8 tubes with serial dilutions of compound at 10× the desired screening concentration that are ultimately diluted to 1× by the addition of S30 luciferase synthesis mixture. Serial dilutions of compounds were added (2 μL) to wells in a black round bottom 96-well plate. Water (2 μL) was used as a “no inhibitor” control in 4 wells/plate. No DNA control reaction mixture (20 μL; see below) was used as a control in 4 wells/plate for background luminescence. S30 luciferase synthesis mixture (18 μL; see below) was added to wells with compounds or water mixture and incubated at 37° C. for 1 hour. Reactions were stopped by transferring to 4° C. refrigerator for 5 minutes then 25 μL of luciferase activity mix was added. Luminescence was measured using a BioTek Synergy HTX plate reader. % Inhibition was determined relative to no inhibitor controls. • S30 luciferase synthesis mixture: • 445 μL S30 extract, circular • 712 μL S30 Premix without amino acids • 4.45 μL pBESTluc™ DNA (1 μg/μL) • 78 μL complete amino acid mixture • 267 μL water • No DNA control: • 20 μL S30 extract, circular • 32 μL S30 Premix without amino acids • 7 μL complete amino acid mixture • 21 μL water Rabbit Reticulocyte lysate

P. aeruginosa (Pa) = experiment: Broth microdilution minimum inhibitory concentration (MIC), CLSI; format: cell-based; conditions: Pseudomonas aeruginosa, growth medium supplemented with sodium bicarbonate, read-out: Pa MIC + bicarb
Experimental: as §1, §2, §3

E. faecalis (Ef) = experiment: as above; format: cell-based; conditions: Enterococcus faecalis, growth medium supplemented with sodium bicarbonate, read-out: Ef + bicarb MIC
Experimental: as §1, §2, §3

A. baumannn (Ab) = experiment: as above; format: cell-based; conditions: Acinetobacter baumannii, read-out: Ab + bicarb MIC
Experimental: as §1, §2, §3

Cc1cc(-n2ccc(NC(=O)N3CCN(C(=O)C(C)(C)N)CC3)nc2=O)ccc1CN1C[C@@H]2[C@@H](N)[C@@H]2C1 [Compound 2]
MIC (E. coli (Ec)): < 8 µg/mL
IC50 [1]: ≥ 1 µM
IC50 [2]: < 0.5 µM

CC(C)(N)C(=O)N1CCN(C(=O)Nc2ccn(-c3ccc(CN4C[C@@H]5[C@@H](N)[C@@H]5C4)c(Cl)c3)c(=O)n2)CC1 [Compound 7]
MIC (E. coli (Ec)): < 8 µg/mL
MIC (P. aeruginosa (Pa)): > 32 µg/mL
IC50 [1]: ≥ 1 µM
IC50 [2]: < 0.5 µM

CC(C)(N)C(=O)N1CCN(C(=O)Nc2ccn(-c3ccc(CN4C[C@H](N)C5(CC5)C4)cc3)c(=O)n2)CC1 [Compound 16]
MIC (E. coli (Ec)): 8 to 32 µg/mL
IC50 [1]: ≥ 1 µM
IC50 [2]: ≥ 1 µM

C[C@H]1CN(C(=O)C(C)(C)N)CCN1C(=O)Nc1ccn(-c2ccc(CN3C[C@@H]4[C@@H](N)[C@@H]4C3)cc2)c(=O)n1 [Compound 17]
MIC (E. coli (Ec)): < 8 µg/mL
MIC (P. aeruginosa (Pa)): > 32 µg/mL
IC50 [1]: ≥ 1 µM
IC50 [2]: < 0.5 µM

C[C@](N)(CF)C(=O)N1CCN(C(=O)Nc2ccn(-c3ccc(CN4C[C@@H]5[C@@H](N)[C@@H]5C4)cc3)c(=O)n2)CC1 [Compound 18]
MIC (E. coli (Ec)): < 8 µg/mL
IC50 [1]: ≥ 1 µM
IC50 [2]: < 0.5 µM

CC(C)(N)C(=O)N1CCN(C(=O)Nc2ccn(-c3ccc(CN4C[C@@H](N)C5(CC5)C4)cc3)c(=O)n2)CC1 [Compound 19]
MIC (E. coli (Ec)): < 8 µg/mL
IC50 [1]: ≥ 1 µM
IC50 [2]: 0.5 to 1 µM

CC(C)(N)C(=O)N1CCN(C(=O)Nc2ccn(-c3ccc(CN4CCC5(CC5N)C4)cc3)c(=O)n2)CC1 (centres unmarked) [Compound 21]
MIC (E. coli (Ec)): < 8 µg/mL
IC50 [1]: ≥ 1 µM
IC50 [2]: < 0.5 µM

CC(C)(N)CN1CCN(C(=O)Nc2ccn(-c3ccc(CN4C[C@@H]5[C@@H](N)[C@@H]5C4)cc3)c(=O)n2)CC1 [Compound 24]
MIC (E. coli (Ec)): < 8 µg/mL
IC50 [1]: ≥ 1 µM
IC50 [2]: 0.5 to 1 µM

C[C@@H]1CN(C(=O)Nc2ccn(-c3ccc(CN4C[C@@H]5[C@@H](N)[C@@H]5C4)cc3)c(=O)n2)CCN1C(=O)C(C)(C)N [Compound 31]
MIC (E. coli (Ec)): < 8 µg/mL
MIC (P. aeruginosa (Pa)): > 32 µg/mL
IC50 [1]: ≥ 1 µM
IC50 [2]: < 0.5 µM

C[C@@H]1CN(C(=O)[C@@](C)(N)CO)CCN1C(=O)Nc1ccn(-c2ccc(CN3C[C@@H]4[C@@H](N)[C@@H]4C3)cc2)c(=O)n1 [Compound 35]
MIC (E. faecalis (Ef)): 8 to 32 µg/mL
MIC (A. baumannn (Ab)): > 32 µg/mL
IC50 [1]: ≥ 1 µM
IC50 [2]: < 0.5 µM

C[C@](N)(CO)C(=O)N1CCN(C(=O)Nc2ccn(-c3ccc(CN4CCC5(CC4)CC(N)C5)cc3)c(=O)n2)CC1 [Compound 37]
MIC (E. coli (Ec)): < 8 µg/mL
MIC (P. aeruginosa (Pa)): 8 to 32 µg/mL
IC50 [1]: ≥ 1 µM
IC50 [2]: < 0.5 µM

CC(C)(N)C(=O)N1CCN(C(=O)Nc2ccn(-c3ccc(CN4CCC5(CC4)CC5N)cc3)c(=O)n2)CC1 (centres unmarked) [Compound 39]
MIC (E. coli (Ec)): < 8 µg/mL
IC50 [1]: ≥ 1 µM
IC50 [2]: < 0.5 µM

CC(C)(N)CN1CCN(C(=O)Nc2ccn(-c3ccc(CN4C[C@@H]5[C@@H](N)[C@@H]5C4)cc3)c(=O)n2)CC1=O [Compound 47]
MIC (E. coli (Ec)): 8 to 32 µg/mL
IC50 [1]: ≥ 1 µM
IC50 [2]: 0.5 to 1 µM

NC[C@H]1[C@@H]2CCN(C(=O)Nc3ccn(-c4ccc(CN5C[C@@H]6[C@@H](N)[C@@H]6C5)cc4)c(=O)n3)C[C@H]12 [Compound 50]
E. coli + bicarb MIC (E. coli (Ec)): +++ (An MIC value (μg/mL) that is less than 8 μg/mL)
IC50 [1]: ≥ 1 µM
IC50 [2]: ≥ 1 µM

NC[C@H]1[C@@H]2CCN(C(=O)Nc3ccn(-c4ccc(CN5C[C@@H]6[C@@H](N)[C@@H]6C5)cc4)c(=O)n3)C[C@H]12 [Compound 51]
E. coli + bicarb MIC (E. coli (Ec)): + (An MIC (μg/mL) value that is 32 μg/mL or greater)
IC50 [1]: ≥ 1 µM
IC50 [2]: ≥ 1 µM

N[C@@H]1[C@H]2CN(Cc3ccc(-n4ccc(NC(=O)N5CCC(C6OCCC[C@@H]6N)CC5)nc4=O)cc3)C[C@@H]12 (some centres unmarked) [Compound 52]
MIC (E. coli (Ec)): < 8 µg/mL
IC50 [1]: ≥ 1 µM
IC50 [2]: ≥ 1 µM

C[C@](N)(CO)C(=O)N1CCN(C(=O)Nc2ccn(-c3ccc(CN4C[C@@H]5[C@@H](CN)[C@@H]5C4)cc3)c(=O)n2)CC1 [Compound 69]
MIC (E. coli (Ec)): < 8 µg/mL
IC50 [1]: ≥ 1 µM
IC50 [2]: < 0.5 µM

CC(C)(N)C(=O)N1CCN(C(=O)Nc2ccn(-c3ccc(CN4CC5CC5(CN)C4)cc3)c(=O)n2)CC1 (centres unmarked) [Compound 71]
MIC (E. coli (Ec)): < 8 µg/mL
IC50 [1]: ≥ 1 µM
IC50 [2]: < 0.5 µM

CC(C)(N)C(=O)N1CCN(C(=O)Nc2ccn(-c3ccc(CN4CC[C@@H]5[C@@H](CN)[C@@H]5C4)cc3)c(=O)n2)CC1 [Compound 72]
MIC (E. coli (Ec)): < 8 µg/mL
IC50 [1]: ≥ 1 µM
IC50 [2]: < 0.5 µM

CC(C)(N)C(=O)N1CCN(C(=O)Nc2ccn(-c3ccc(CN4C[C@H]5CNC[C@H]5C4)cc3)c(=O)n2)CC1 [Compound 76]
MIC (E. coli (Ec)): < 8 µg/mL
IC50 [1]: ≥ 1 µM
IC50 [2]: < 0.5 µM

CC(C)(N)C(=O)N1CCN(C(=O)Nc2ccn(-c3ccc(CN4CC[C@H]5NCC[C@H]5C4)cc3)c(=O)n2)CC1 [Compound 77]
MIC (E. coli (Ec)): < 8 µg/mL
IC50 [1]: ≥ 1 µM
IC50 [2]: < 0.5 µM

CC(C)(N)C(=O)N1CCN(C(=O)Nc2ccn(-c3ccc(CN4CCC5(CCNCC5)CC4)cc3)c(=O)n2)CC1 [Compound 82]
MIC (E. coli (Ec)): < 8 µg/mL
IC50 [1]: ≥ 1 µM
IC50 [2]: < 0.5 µM

C[C@](N)(CO)C(=O)N1CCN(C(=O)Nc2ccn(-c3ccc(CCN4C[C@@H]5[C@@H](N)[C@@H]5C4)cc3)c(=O)n2)CC1 [Compound 85]
MIC (E. coli (Ec)): > 32 µg/mL
IC50 [2]: ≥ 1 µM

CC(C)(N)C(=O)N1CCN(C(=O)Nc2ccn(-c3ccc(CCN4CCC5(CC4)CC(N)C5)cc3)c(=O)n2)CC1 [Compound 91]
MIC (E. coli (Ec)): < 8 µg/mL
MIC (P. aeruginosa (Pa)): < 8 µg/mL
IC50 [1]: ≥ 1 µM
IC50 [2]: < 0.5 µM
